{
  "source": "patent US4339535A",
  "about": "“Process for preparing antibiotic EM 4940” (E. R. Squibb & Sons, Inc., priority 1980, dated 1982)",
  "key": {"[1]": {"tested_on": "Propionibacterium acnes", "assay": "MIC anaerobic screen", "type": "cell-based", "details": "Cutibacterium acnes, Table IV, strain 4020, read-out: Minimum Inhibitory Concentration"}, "[2]": {"tested_on": "Streptococcus faecalis", "assay": "MIC aerobic screen, BA-2 agar", "details": "Enterococcus faecalis, strain 9011"}, "[3]": {"tested_on": "Escherichia coli", "assay": "MIC aerobic screen, H-59 synthetic agar"}, "[4]": {"tested_on": "Streptococcus faecalis", "assay": "MIC aerobic screen, H-59 synthetic agar", "details": "Enterococcus faecalis, read-out: Minimum Inhibitory Concentration"}, "[5]": {"tested_on": "Bifidobacterium dentium", "assay": "MIC anaerobic screen", "type": "cell-based", "details": "Table IV, strain 11,260, read-out: Minimum Inhibitory Concentration"}, "[6]": {"tested_on": "Klebsiella aerogenes", "assay": "MIC aerobic screen, H-59 synthetic agar", "details": "read-out: Minimum Inhibitory Concentration"}, "[7]": {"tested_on": "Shigella sonnei", "assay": "MIC aerobic screen, BA-2 agar", "type": "cell-based", "details": "strain 8449"}, "[8]": {"tested_on": "Proteus rettgeri", "assay": "MIC aerobic screen, BA-2 agar", "details": "Providencia rettgeri, read-out: Minimum Inhibitory Concentration"}, "[9]": {"tested_on": "E. floccosum", "assay": "MIC against dermatophytes", "type": "cell-based", "details": "Epidermophyton floccosum; Table VI; strain 9185; 26° C., 48 hours; read-out: Minimum Inhibitory Concentration"}, "[10]": {"tested_on": "T. mentagrophytes", "assay": "MIC against dermatophytes", "type": "cell-based", "details": "Trichophyton mentagrophytes; Table VI; strain 2637; 26° C., 48 hours; read-out: Minimum Inhibitory Concentration"}, "[11]": {"tested_on": "Bacteroides fragilis", "assay": "MIC anaerobic screen", "type": "cell-based"}, "[12]": {"tested_on": "Candida albicans", "assay": "MIC against Candida albicans (broth tube dilution)", "type": "cell-based", "details": "Table V, strain 5314, read-out: Minimum Inhibitory Concentration"}, "[13]": {"tested_on": "T. rubrum", "assay": "MIC against dermatophytes", "type": "cell-based", "details": "Trichophyton rubrum; Table VI; strain 9199; 26° C., 48 hours; read-out: Minimum Inhibitory Concentration"}, "[14]": {"tested_on": "Salmonella typhimurium", "assay": "MIC aerobic screen, H-59 synthetic agar", "details": "Salmonella enterica, read-out: Minimum Inhibitory Concentration"}, "[15]": {"tested_on": "Mycoplasma mycoides", "assay": "microbe, parasite or virus in culture", "type": "cell-based", "details": "48 h"}, "[16]": {"tested_on": "Serratia marcescens", "assay": "MIC aerobic screen, H-59 synthetic agar"}, "[17]": {"tested_on": "Hemophilus vaginalis", "assay": "MIC anaerobic screen", "type": "cell-based", "details": "Table IV"}, "[18]": {"tested_on": "Klebsiella aerogenes", "assay": "MIC aerobic screen, BA-2 agar", "details": "Klebsiella aerogenes, strain 10,436"}, "[19]": {"tested_on": "M. canis", "assay": "MIC against dermatophytes", "type": "cell-based", "details": "Microsporum canis; Table VI; strain 9237; 26° C., 48 hours; read-out: Minimum Inhibitory Concentration"}, "[20]": {"tested_on": "Trichomonas vaginalis", "assay": "MIC against Trichomonas vaginalis", "type": "cell-based", "details": "Table VII, strain 8560, anaerobic, 37° C., 40 hours, read-out: Minimum Inhibitory Concentration"}, "[21]": {"tested_on": "Peptococcus variabilis", "assay": "MIC anaerobic screen", "type": "cell-based", "details": "Table IV, strain 11,264, read-out: Minimum Inhibitory Concentration"}, "[22]": {"tested_on": "Enterobacter cloacae", "assay": "MIC aerobic screen, BA-2 agar", "details": "Enterobacter cloacae, strain 10,459"}, "[23]": {"tested_on": "Clostridium perfringens", "assay": "microbe, parasite or virus in culture", "type": "cell-based", "details": "read-out: Minimum Inhibitory Concentration"}, "[24]": {"tested_on": "Acholeplasma laidlawii", "assay": "MIC against mycoplasmas", "type": "cell-based", "details": "Table VIII, 48 hours, 37° C., phenol red color change"}, "[25]": {"tested_on": "Peptostreptococcus anaerobius", "assay": "MIC anaerobic screen", "type": "cell-based", "details": "Table IV, strain 11,263, read-out: Minimum Inhibitory Concentration"}, "[26]": {"tested_on": "Pseudomonas aeruginosa", "assay": "MIC aerobic screen, BA-2 agar", "details": "Pseudomonas aeruginosa"}, "[27]": {"tested_on": "Shigella sonnei", "assay": "MIC aerobic screen, H-59 synthetic agar", "type": "cell-based", "details": "Table III, H-59 agar, strain 8449, read-out: Minimum Inhibitory Concentration", "from_the_text": "(A) Using H-59 Synthetic Agar"}, "[28]": {"tested_on": "Escherichia coli", "assay": "MIC aerobic screen, BA-2 agar", "details": "Escherichia coli"}, "[29]": {"tested_on": "Proteus morganii", "assay": "MIC aerobic screen, BA-2 agar", "details": "Morganella morganii, strain 9774"}, "[30]": {"tested_on": "Salmonella typhimurium", "assay": "MIC aerobic screen, BA-2 agar"}, "[31]": {"details": "read-out: Minimum Inhibitory Concentration, Table I, BA-2 agar"}, "[32]": {"details": "read-out: Minimum Inhibitory Concentration, Table II, additional tests"}},
  "note": "Where two headings read alike, the source gives them in different places.",
  "data": [
    {"smiles": "CC1(O)CC(C(N)=O)N=C1c1ncccc1O", "note": "(stereo not drawn) [EM4940A, 2,4-trans-3,4-dihydro-4-hydroxy-5-(3-hydroxy-2-pyridinyl)-4-methyl-2H-pyrrole-2-carboxamide]", "values": [
      {"measurement": "MIC", "setting": "[1]", "value": 50, "unit": "µg/mL"},
      {"measurement": "MIC", "setting": "[2]; [31]", "value": "> 100", "unit": "µg/mL"},
      {"measurement": "MIC", "setting": "[2]; [32]", "value": "> 200", "unit": "µg/mL"},
      {"measurement": "MIC", "setting": "[3]; read-out: Minimum Inhibitory Concentration, Table III, H-59 agar, strain 10,404", "value": 50, "unit": "µg/mL"},
      {"measurement": "MIC", "setting": "[3]; read-out: Minimum Inhibitory Concentration, Table III, H-59 agar, strain 10,857", "value": 25, "unit": "µg/mL"},
      {"measurement": "MIC", "setting": "[4]", "value": "> 100", "unit": "µg/mL"},
      {"measurement": "MIC", "setting": "[5]", "value": "> 100", "unit": "µg/mL"},
      {"measurement": "MIC", "setting": "[6]", "value": 50, "unit": "µg/mL"},
      {"measurement": "MIC", "setting": "[7]; Shigella sonnei, Table I, BA-2 agar, read-out: Minimum Inhibitory Concentration", "value": 50, "unit": "µg/mL"},
      {"measurement": "Minimum Inhibitory Concentration", "setting": "[7]; Table II, additional tests", "value": 50, "unit": "µg/mL"},
      {"measurement": "MIC", "setting": "[8]", "value": 50, "unit": "µg/mL"},
      {"measurement": "MIC", "setting": "[9]", "value": "> 100", "unit": "µg/mL"},
      {"measurement": "MIC", "setting": "[10]", "value": "> 100", "unit": "µg/mL"},
      {"measurement": "MIC", "setting": "[11]; Table IV, anaerobic, strain 9005, read-out: Minimum Inhibitory Concentration", "value": 50, "unit": "µg/mL"},
      {"measurement": "MIC", "setting": "[11]; Table IV, anaerobic, strain 10,277, read-out: Minimum Inhibitory Concentration", "value": 50, "unit": "µg/mL"},
      {"measurement": "MIC", "setting": "[11]; Table IV, anaerobic, strain 10,278, read-out: Minimum Inhibitory Concentration", "value": 50, "unit": "µg/mL"},
      {"measurement": "MIC", "setting": "[11]; Table IV, anaerobic, strain 10,279, read-out: Minimum Inhibitory Concentration", "value": 50, "unit": "µg/mL"},
      {"measurement": "MIC", "setting": "[11]; Table IV, anaerobic, strain 10,281, read-out: Minimum Inhibitory Concentration", "value": 50, "unit": "µg/mL"},
      {"measurement": "MIC", "setting": "[11]; Table IV, anaerobic, strain 11,085, read-out: Minimum Inhibitory Concentration", "value": 100, "unit": "µg/mL"},
      {"measurement": "MIC", "setting": "[11]; Table IV, anaerobic, strain 11,086, read-out: Minimum Inhibitory Concentration", "value": 50, "unit": "µg/mL"},
      {"measurement": "MIC", "setting": "[11]; read-out: Minimum Inhibitory Concentration", "value": 12.5, "unit": "µg/mL"},
      {"measurement": "MIC", "setting": "[12]; Candida albicans, Medium: F4", "value": "> 100", "unit": "µg/mL"},
      {"measurement": "MIC", "setting": "[12]; Medium: Yeast Nitrogen Base + Glucose", "value": "> 100", "unit": "µg/mL"},
      {"measurement": "MIC", "setting": "[13]", "value": 50, "unit": "µg/mL"},
      {"measurement": "MIC", "setting": "[14]", "value": 50, "unit": "µg/mL"},
      {"measurement": "MIC", "setting": "[15]", "value": "> 100", "unit": "µg/mL"},
      {"measurement": "MIC", "setting": "[16]; Serratia marcescens, read-out: Minimum Inhibitory Concentration", "value": 100, "unit": "µg/mL"},
      {"measurement": "Minimum Inhibitory Concentration", "setting": "[16]; Table III, H-59 agar, strain 11,111", "value": 100.0, "unit": "µg/mL"},
      {"measurement": "MIC", "setting": "[17]; strain 8568, read-out: Minimum Inhibitory Concentration", "value": 100, "unit": "µg/mL"},
      {"measurement": "Minimum Inhibitory Concentration", "setting": "[17]; strain 9640", "value": 100.00, "unit": "µg/mL"},
      {"measurement": "MIC", "setting": "[18]; [31]", "value": 100, "unit": "µg/mL"},
      {"measurement": "MIC", "setting": "[18]; [32]", "value": 50, "unit": "µg/mL"},
      {"measurement": "MIC", "setting": "[19]", "value": 100, "unit": "µg/mL"},
      {"measurement": "MIC", "setting": "[20]", "value": 12.5, "unit": "µg/mL"},
      {"measurement": "MIC", "setting": "[21]", "value": 50, "unit": "µg/mL"},
      {"measurement": "MIC", "setting": "[22]; [31]", "value": "> 100", "unit": "µg/mL"},
      {"measurement": "MIC", "setting": "[22]; [32]", "value": 50, "unit": "µg/mL"},
      {"measurement": "MIC", "setting": "[23]", "value": 50, "unit": "µg/mL"},
      {"measurement": "MIC", "setting": "[24]", "value": 100, "unit": "µg/mL"},
      {"measurement": "MIC", "setting": "[25]", "value": 50, "unit": "µg/mL"},
      {"measurement": "MIC", "setting": "[26]; read-out: Minimum Inhibitory Concentration, Table I, BA-2 agar, strain 8754", "value": "> 100", "unit": "µg/mL"},
      {"measurement": "MIC", "setting": "[26]; read-out: Minimum Inhibitory Concentration, Table I, BA-2 agar, strain 9330", "value": 50, "unit": "µg/mL"},
      {"measurement": "MIC", "setting": "[26]; read-out: Minimum Inhibitory Concentration, Table I, BA-2 agar, strain 9545", "value": 25, "unit": "µg/mL"},
      {"measurement": "MIC", "setting": "[26]; read-out: Minimum Inhibitory Concentration, Table II, additional tests, strain 8754", "value": 100, "unit": "µg/mL"},
      {"measurement": "MIC", "setting": "[26]; read-out: Minimum Inhibitory Concentration, Table II, additional tests, strain 9330", "value": "> 200", "unit": "µg/mL"},
      {"measurement": "MIC", "setting": "[26]; read-out: Minimum Inhibitory Concentration, Table II, additional tests, strain 9545", "value": 12.5, "unit": "µg/mL"},
      {"measurement": "MIC", "setting": "[27]", "value": 50, "unit": "µg/mL"},
      {"measurement": "MIC", "setting": "[28]; read-out: Minimum Inhibitory Concentration, Table I, BA-2 agar, strain 10,404", "value": 100, "unit": "µg/mL"},
      {"measurement": "MIC", "setting": "[28]; read-out: Minimum Inhibitory Concentration, Table I, BA-2 agar, strain 10,857", "value": 50, "unit": "µg/mL"},
      {"measurement": "MIC", "setting": "[28]; read-out: Minimum Inhibitory Concentration, Table I, BA-2 agar, strain 10,896", "value": 25, "unit": "µg/mL"},
      {"measurement": "MIC", "setting": "[28]; read-out: Minimum Inhibitory Concentration, Table II, additional tests, strain 10,404", "value": 50, "unit": "µg/mL"},
      {"measurement": "MIC", "setting": "[28]; read-out: Minimum Inhibitory Concentration, Table II, additional tests, strain 10,857", "value": 50, "unit": "µg/mL"},
      {"measurement": "MIC", "setting": "[29]; [31]", "value": 50, "unit": "µg/mL"},
      {"measurement": "MIC", "setting": "[29]; [32]", "value": 100, "unit": "µg/mL"},
      {"measurement": "MIC", "setting": "[30]; Salmonella enterica, TYPHIMURIUM, read-out: Minimum Inhibitory Concentration", "value": 50, "unit": "µg/mL"},
      {"measurement": "Minimum Inhibitory Concentration", "setting": "[30]; Table II, additional tests, strain 9201", "value": 50, "unit": "µg/mL"}
    ]}
  ]
}
